Key:
Format in all cases: in vivo
[1] = test system: Erysiphe graminis f. sp. tritici; assay: Test A: wheat powdery mildew, preventive spray on wheat seedlings, visual disease rating
In short: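 Acetone/water (50/50) suspension with 250 ppm surfactant sprayed to run-off on wheat seedlings (200 ppm ≈ 500 g/ha); inoculated next day with E. graminis spore dust. Incubated 8 days at 20° C, then visually rated 0–100% disease control versus untreated controls; tests at 200 ppm or 40 ppm.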

[2] = test system: Puccinia recondite f. sp. tritici; assay: Test B: wheat leaf rust, preventive spray on wheat seedlings, visual disease rating
In short: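 Wheat seedlings were sprayed to run-off with compound suspension, 200 ppm (≈500 g/ha) or 40 ppm where marked, containing surfactant in acetone/water. Inoculation with Puccinia recondita spores followed one day later, then 24 h in saturated humidity at 20° C and 7 days at 20° C. Disease control was rated visually, 0–100% versus controls.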

Septoria tritici = assay: Test C: wheat leaf blotch, preventive spray on wheat seedlings, visual disease rating
In short: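 Wheat seedlings sprayed to run-off with compound in acetone/water plus 250 ppm surfactant at 200 ppm (≈500 g/ha), or 40 ppm where marked; inoculated with Septoria tritici next day. Held saturated at 20 °C for 48 h, then 19 days at 20 °C; disease control rated visually 0–100 versus controls.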

Septoria nodorum = assay: Test D: wheat glume blotch, preventive spray on wheat seedlings, visual disease rating
In short: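 Compounds in 3% acetone, then 50/50 acetone–water with 250 ppm Trem 014, sprayed to run-off at 200 ppm (500 g/ha; some at 40 ppm) one day before spore inoculation. Held 48 h saturated at 20 °C, then 7 days at 20 °C; visual rating as % disease control vs untreated (0–100).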

Alternaria solani = assay: Test E: tomato early blight, preventive spray on tomato seedlings, visual disease rating
In short: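 Seedlings sprayed to run-off with compound in acetone/water plus 250 ppm Trem 014 (200 ppm ≈ 500 g/ha), inoculated with spores next day. Held 48 h saturated at 27 °C, then 5 days at 20 °C; visual rating 0–100% disease control relative to controls.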

Botrytis cinerea = assay: Test F: tomato botrytis, preventive spray on tomato seedlings, visual disease rating
In short: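 Tomato seedlings sprayed to run-off with compound suspended in acetone/water (50/50) plus 250 ppm Trem 014, at 200 ppm (≈500 g/ha) or 40 ppm where marked. Inoculated next day with B. cinerea spores, 48 h saturated atmosphere at 20 °C, then 3 days at 24 °C. Visual rating, 0–100% disease control relative to controls.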

Plasmopara viticola = assay: Test H: grape downy mildew, spray after inoculation of grape seedlings, visual disease rating; conditions: 200 ppm, 100 = 100% disease control, 0 = no control; for pest or weed control at 200 ppm: Plasmopara viticola, 192 h
Source text: General protocol for preparing test suspensions for Tests A-H: The test compounds were first dissolved in acetone in an amount equal to 3% of the final volume and then suspended at the desired concentration (in ppm) in acetone and purified water (50/50 mix) containing 250 ppm of the surfactant Trem® 014 (polyhydric alcohol esters). The resulting test suspensions were then used in tests A-H. Spraying a 200 ppm test suspension to the point of run-off on the test plants was the equivalent of a rate of 500 g/ha.
Grape seedlings were inoculated with a spore suspension of Plasmopara viticola (the causal agent of grape downy mildew) and incubated in a saturated atmosphere at 20° C. for 24 h. After a short drying period, the test suspension was sprayed to the point of run-off on the grape seedlings, and then moved to a growth chamber at 20° C. for 6 days, after which time the test units were placed back into a saturated atmosphere at 20° C. for 24 h. Upon removal, disease ratings were visually made.
Results for Tests A-H are given in Table A. In the table, a rating of 100 indicates 100% disease control and a rating of 0 indicates no disease control (relative to the controls). A dash (-) indicates no test results. All results are for compounds tested at 200 ppm except where the compound number is followed by “*” which indicates the compound was tested at 40 ppm.

[3] = Blumeria graminis, 192 h, 200 ppm, 100 = 100% disease control, 0 = no control
[4] = 192 h, 200 ppm, 100 = 100% disease control, 0 = no control
[5] = Zymoseptoria tritici, 504 h, 200 ppm, 100 = 100% disease control, 0 = no control
[6] = Parastagonospora nodorum, 216 h, 200 ppm, 100 = 100% disease control, 0 = no control
[7] = Alternaria solani, 168 h, 200 ppm, 100 = 100% disease control, 0 = no control
[8] = Botrytis cinerea, 120 h, 200 ppm, 100 = 100% disease control, 0 = no control
[9] = 200 ppm, 100 = 100% disease control, 0 = no control
[10] = 40 ppm (compound number followed by *)

Row | Compound | Test A rating (% disease control) [1, 9] | Test B rating (% disease control) [2, 9] | Test D rating (% disease control) (Septoria nodorum; [9]) | Test E rating (% disease control) (Alternaria solani; [9]) | Test F rating (% disease control) (Botrytis cinerea; [9]) | Test H rating (% disease control) (Plasmopara viticola) | Test C rating (% disease control) (Septoria tritici; [9]) | further results
1 | COc1cc(OC)cc(-c2c(C(C)(C)O)cnc(C)c2-c2ccc(F)cc2)c1 [Compound 13, 4-(3,5-dimethoxyphenyl)-5-(4-fluorophenyl)-α,α,6-trimethyl-3-pyridinemethanol] |  |  |  |  |  |  |  | pest or weed control at 200 ppm [1, 3]: 96%; pest or weed control at 200 ppm [2, 4]: 99%; pest or weed control at 200 ppm (Septoria tritici; [5]): 100%; pest or weed control at 200 ppm (Septoria nodorum; [6]): 0%; pest or weed control at 200 ppm (Alternaria solani; [7]): 100%; pest or weed control at 200 ppm (Botrytis cinerea; [8]): 99%; pest or weed control at 200 ppm (Plasmopara viticola): 0%
2 | CCOC(=O)c1cnc(C)c(-c2ccc(F)cc2)c1-c1cc(OC)cc(OC)c1 [Compound 11, ethyl 4-(3,5-dimethoxyphenyl)-5-(4-fluorophenyl)-6-methyl-3-pyridinecarboxylate] |  |  |  |  |  |  |  | pest or weed control at 200 ppm [1, 3]: 98%; pest or weed control at 200 ppm [2, 4]: 0%; pest or weed control at 200 ppm (Septoria tritici; [5]): 30%; pest or weed control at 200 ppm (Septoria nodorum; [6]): 0%; pest or weed control at 200 ppm (Alternaria solani; [7]): 0%; pest or weed control at 200 ppm (Botrytis cinerea; [8]): 0%; pest or weed control at 200 ppm (Plasmopara viticola): 0%
3 | CCOC(=O)c1c[n+]([O-])c(C)c(-c2ccccc2)c1-c1cc(OC)cc(OC)c1 [Compound 51] | 76% | 0% | 0% | 0% | 0% | 0% |  | 
4 | COc1cc(OC)cc(-c2c(C(C)=O)cnc(C)c2-c2ccc(F)cc2)c1 [Compound 12, 1-[4-(3,5-dimethoxyphenyl)-5-(4-fluorophenyl)-6-methyl-3-pyridinyl]ethanone] |  |  |  |  |  |  |  | pest or weed control at 200 ppm [1, 3]: 95%; pest or weed control at 200 ppm [2, 4]: 93%; pest or weed control at 200 ppm (Septoria tritici; [5]): 92%; pest or weed control at 200 ppm (Septoria nodorum; [6]): 0%; pest or weed control at 200 ppm (Alternaria solani; [7]): 90%; pest or weed control at 200 ppm (Botrytis cinerea; [8]): 99%; pest or weed control at 200 ppm (Plasmopara viticola): 0%
5 | CCOC(=O)c1cnc(C)c(-c2ccccc2)c1-c1cc(OC)cc(OC)c1F [Compound 26] | 94% | 68% | 0% | 0% | 98% | 0% | 86% | 
6 | CCOC(=O)c1cnc(C)c(-c2ccccc2)c1-c1cc(OC)ccc1F [Compound 15] | 82% | 0% | 0% | 0% | 96% | 0% | 7% | 
7 | COc1cc(OC)cc(-c2c(C(C)C)cnc(C)c2-c2ccccc2F)c1 [Compound 21] | 100% | 99% | 0% | 97% | 98% | 40% | 100% | 
8 | CCOC(=O)c1cnc(C)c(-c2ccccc2)c1-c1cc(OC)cc(OC)c1 [Compound 1] | 96% | 28% | 0% | 0% | 99% | 0% |  | 
9 | COc1cc(OC)cc(-c2c(C(C)=O)cnc(C)c2-c2ccccc2)c1 [Compound 2] | 95% | 0% | 0% | 0% | 99% | 0% |  | 
10 | COc1cc(OC)cc(-c2c(-c3ccccc3F)c[n+]([O-])c(C)c2-c2ccccc2)c1 [Compound 33] | 79% |  |  | 100% | 95% | 0% |  | 
11 | COc1ccc(-c2c(C)ncc(C(C)C)c2-c2cc(OC)cc(OC)c2)cc1 [Compound 65] | 80% | 98% | 0% | 100% | 99% |  | 96% | 
12 | COc1ccc(-c2c(C)ncc(C(C)(C)O)c2-c2cc(OC)cc(OC)c2)cc1 [Compound 62] | 80% | 100% | 73% | 100% | 95% |  | 94% | 
13 | COc1cc(OC)cc(-c2c(-c3ccccc3)cnc(C)c2-c2c(F)cccc2F)c1 [Compound 87] |  |  |  |  |  |  |  | Test A rating (% disease control) [1, 10]: 98%; Test B rating (% disease control) [2, 10]: 96%; Test C rating (% disease control) (Septoria tritici; [10]): 95%; Test D rating (% disease control) (Septoria nodorum; [10]): 0%; Test E rating (% disease control) (Alternaria solani; [10]): 0%; Test F rating (% disease control) (Botrytis cinerea; [10]): 72%
14 | COc1ccc(-c2c(C)ncc(C(C)=O)c2-c2cc(OC)cc(OC)c2)cc1 [Compound 61] | 86% | 99% | 0% | 83% | 99% |  | 84% | 
15 | COc1cc(OC)cc(-c2c(C3CCSCC3)cnc(C)c2-c2ccc(F)cc2)c1 [Compound 84] |  |  |  |  |  |  |  | Test A rating (% disease control) [1, 10]: 96%; Test B rating (% disease control) [2, 10]: 98%; Test C rating (% disease control) (Septoria tritici; [10]): 96%; Test D rating (% disease control) (Septoria nodorum; [10]): 0%; Test E rating (% disease control) (Alternaria solani; [10]): 0%; Test F rating (% disease control) (Botrytis cinerea; [10]): 49%
16 | COc1cc(OC)cc(-c2c(-c3ccccc3)cnc(C)c2-c2c(F)cc(F)cc2F)c1 [Compound 121, 4-(3,5-dimethoxyphenyl)-2-methyl-5-phenyl-3-(2,4,6-trifluorophenyl)pyridine] |  |  |  |  |  |  |  | pest or weed control at 40 ppm ([1]; Blumeria graminis, 192 h, 40 ppm (compound number followed by *)): 99%; pest or weed control at 40 ppm ([2]; 192 h, 40 ppm (compound number followed by *)): 100%; pest or weed control at 40 ppm (Septoria tritici; Zymoseptoria tritici, 504 h, 40 ppm (compound number followed by *)): 99%; pest or weed control at 40 ppm (Septoria nodorum; Parastagonospora nodorum, 216 h, 40 ppm (compound number followed by *)): 94%; pest or weed control at 40 ppm (Alternaria solani; Alternaria solani, 168 h, 40 ppm (compound number followed by *)): 99%; pest or weed control at 40 ppm (Botrytis cinerea; Botrytis cinerea, 120 h, 40 ppm (compound number followed by *)): 100%
17 | COc1cc(OC)cc(-c2c(CO)cnc(C)c2-c2c(F)cc(F)cc2F)c1 [Compound 96, 4-(3,5-dimethoxyphenyl)-6-methyl-5-(2,4,6-trifluorophenyl)-3-pyridinemethanol] |  |  |  |  |  |  |  | pest or weed control at 200 ppm [1, 3]: 98%; pest or weed control at 200 ppm [2, 4]: 96%; pest or weed control at 200 ppm (Septoria tritici; [5]): 94%; pest or weed control at 200 ppm (Septoria nodorum; [6]): 0%; pest or weed control at 200 ppm (Alternaria solani; [7]): 99%; pest or weed control at 200 ppm (Botrytis cinerea; [8]): 98%
18 | CCC(O)c1cnc(C)c(-c2c(F)cc(F)cc2F)c1-c1cc(OC)cc(OC)c1 (stereo not shown) [Compound 99] | 100% | 100% | 100% | 100% | 98% |  | 94% | 
19 | COc1cc(OC)cc(-c2c(C(C)=O)cnc(C)c2-c2c(F)cc(OC)cc2F)c1 [Compound 71] | 98% | 100% | 81% | 100% | 99% |  | 95% | 

— patent publication US20110092544A1, “FUNGICIDAL PYRIDINES” (E.I. DU PONT DE nemours and company, priority 2008, published 2011)
